Reference: ChEMBL document CHEMBL3804786, “Novel 1,3-thiazolidin-4-one derivatives as promising anti-Candida agents endowed with anti-oxidant and chelating properties” (Eur J Med Chem, 2016)
≈ marks a conversion by molar mass, not a printed value.

Key:
[1] = test system: Staphylococcus aureus; assay: Antibacterial activity against Staphylococcus aureus clinical isolate after 18 to 22 hrs by broth microdilution method; assay type: functional
[2] = test system: Pichia kudriavzevii; assay: Antifungal activity against Candida krusei clinical isolate after 24 hrs by broth microdilution method; assay type: functional
[3] = test system: Escherichia coli; assay: Antibacterial activity against Escherichia coli after clinical isolate 18 to 22 hrs by broth microdilution method; assay type: functional
[4] = test system: Nakaseomyces glabratus; assay: Antifungal activity against Candida glabrata clinical isolate after 24 hrs by broth microdilution method; assay type: functional
[5] = test system: Staphylococcus warneri; assay: Antibacterial activity against Staphylococcus warneri clinical isolate after 18 to 22 hrs by broth microdilution method; assay type: functional
[6] = Cytotoxicity against human Hep2 cells assessed as reduction in cell viability after 24 hrs by trypan blue exclusion assay; assay type: cell-based, HEp-2
[7] = test system: Candida tropicalis; assay: Antifungal activity against Candida tropicalis clinical isolate after 24 hrs by broth microdilution method; assay type: functional
[8] = test system: Enterococcus faecalis; assay: Antibacterial activity against Streptococcus faecalis clinical isolate after 18 to 22 hrs by broth microdilution method; assay type: functional
[9] = Cytotoxicity against human Hep2 cells assessed as cell survival at 0.5 ug/ml after 24 hrs by trypan blue exclusion assay; assay type: cell-based, HEp-2; settings: read-out: Survival
[10] = Antioxidant activity of the compound after 30 mins by CUPRAC method; assay type: physicochemical
[11] = test system: Streptococcus sp. (viridans group); assay: Antibacterial activity against Streptococcus alpha-hemolyticus clinical isolate after 18 to 22 hrs by broth microdilution method
[12] = Antioxidant activity of the compound after 90 mins by phosphomolybdenum assay; assay type: physicochemical
[13] = Antioxidant activity assessed as DPPH radical scavenging activity after 30 mins under dark conditions; assay type: physicochemical
[14] = Cytotoxicity against human Hep2 cells assessed as cell survival at 5 ug/ml after 24 hrs by trypan blue exclusion assay; assay type: cell-based, HEp-2; settings: read-out: Survival
[15] = test system: Klebsiella oxytoca; assay: Antibacterial activity against Klebsiella oxytoca clinical isolate after 18 to 22 hrs by broth microdilution method; assay type: functional
[16] = test system: Candida albicans; assay: Antifungal activity against Candida albicans clinical isolate after 24 hrs by broth microdilution method; assay type: functional
[17] = Cytotoxicity against human Hep2 cells assessed as cell survival at 10 ug/ml after 24 hrs by trypan blue exclusion assay; assay type: cell-based, HEp-2; settings: read-out: Survival
[18] = Antioxidant activity of the compound after 30 mins by FRAP assay; assay type: physicochemical
[19] = test system: Proteus mirabilis; assay: Antibacterial activity against Proteus mirabilis clinical isolate after 18 to 22 hrs by broth microdilution method; assay type: functional
[20] = Cytotoxicity against human Hep2 cells assessed as cell survival at 0.05 ug/ml after 24 hrs by trypan blue exclusion assay; assay type: cell-based, HEp-2; settings: read-out: Survival
[21] = Cytotoxicity against human Hep2 cells assessed as cell survival at 50 ug/ml after 24 hrs by trypan blue exclusion assay; assay type: cell-based, HEp-2; settings: read-out: Survival
[22] = test system: Enterobacter sp.; assay: Antibacterial activity against Enterobacter spp. clinical isolate after 18 to 22 hrs by broth microdilution method; assay type: functional
[23] = Metal chelating activity of the compound assessed as ferrous ion complex formation after 10 mins; assay type: physicochemical
[24] = Antioxidant activity assessed as ABTS radical scavenging activity after 30 mins under dark conditions; assay type: physicochemical
[25] = test system: [Candida] sake; assay: Antifungal activity against Candida sake clinical isolate after 24 hrs by broth microdilution method; assay type: functional; settings: Fermentozyma sake
[26] = test system: Candida parapsilosis; assay: Antifungal activity against Candida parapsilosis clinical isolate after 24 hrs by broth microdilution method; assay type: functional; settings: Lodderomyces parapsilosis

Row | SMILES | MIC [1] | MIC [2] | MIC [3] | MIC [4] | MIC [5] | CC50 at 24 h [6] | MIC [7] | MIC [8] | EC50 [10] | MIC [11] | EC50 [12] | IC50 [13] | MIC [15] | MIC [16] | EC50 [18] | MIC [19] | viability at 24 h, 50 ug/ml [21] | MIC [22] | MIC [25] | MIC [26] | also measured
1 | C/C(=N\N=C1/SCC(=O)N1Cc1cccc(F)c1)c1cccs1 | > 256 µg/mL | 2 µg/mL (≈ 5.76 µM) | > 256 µg/mL | 8 µg/mL (≈ 23 µM) | > 256 µg/mL | 6 µg/mL (≈ 17.3 µM) | 2 µg/mL (≈ 5.76 µM) | > 256 µg/mL | 2550 µM | > 256 µg/mL | 1360 µM | > 5000 µM | > 256 µg/mL | 2 µg/mL (≈ 5.76 µM) | 2620 µM | > 256 µg/mL | 0% | > 256 µg/mL | 2 µg/mL (≈ 5.76 µM) | 2 µg/mL (≈ 5.76 µM) | viability at 24 h, 0.5 ug/ml [9]: 68%; viability at 24 h, 5 ug/ml [14]: 42%; viability at 24 h, 10 ug/ml [17]: 0%; viability at 24 h, 0.05 ug/ml [20]: 80%; IC50 [23]: 4640 µM; IC50 [24]: 21100 µM
2 | C/C(=N/N=C1\SCC(=O)N1Cc1ccc(F)cc1)c1ccccn1 | > 256 µg/mL | 8 µg/mL (≈ 23.4 µM) | > 256 µg/mL | 2 µg/mL (≈ 5.84 µM) | > 256 µg/mL | 16 µg/mL (≈ 46.7 µM) | 2 µg/mL (≈ 5.84 µM) | > 256 µg/mL | 1750 µM | > 256 µg/mL | 1160 µM | > 5000 µM | > 256 µg/mL | 2 µg/mL (≈ 5.84 µM) | 6220 µM | > 256 µg/mL | 0% | > 256 µg/mL | 2 µg/mL (≈ 5.84 µM) | 4 µg/mL (≈ 11.7 µM) | viability at 24 h, 0.5 ug/ml [9]: 83%; viability at 24 h, 5 ug/ml [14]: 70%; viability at 24 h, 10 ug/ml [17]: 42%; viability at 24 h, 0.05 ug/ml [20]: 91%; IC50 [23]: 3670 µM; IC50 [24]: 16100 µM
3 | C/C(=N/N=C1\SCC(=O)N1Cc1ccc(N)cc1)c1cccs1 | > 256 µg/mL | 8 µg/mL (≈ 23.2 µM) | > 256 µg/mL | 8 µg/mL (≈ 23.2 µM) | > 256 µg/mL |  | 2 µg/mL (≈ 5.81 µM) | > 256 µg/mL |  | > 256 µg/mL |  |  | > 256 µg/mL | 4 µg/mL (≈ 11.6 µM) |  | > 256 µg/mL |  | > 256 µg/mL | 2 µg/mL (≈ 5.81 µM) | 8 µg/mL (≈ 23.2 µM) | 
4 | C/C(=N/N=C1\SCC(=O)N1Cc1ccc(N)cc1)c1ccccn1 | > 256 µg/mL | 8 µg/mL (≈ 23.6 µM) | > 256 µg/mL | 8 µg/mL (≈ 23.6 µM) | > 256 µg/mL |  | 2 µg/mL (≈ 5.89 µM) | > 256 µg/mL |  | > 256 µg/mL |  |  | > 256 µg/mL | 2 µg/mL (≈ 5.89 µM) |  | > 256 µg/mL |  | > 256 µg/mL | 2 µg/mL (≈ 5.89 µM) | 8 µg/mL (≈ 23.6 µM) | 
5 | CC(C)=N/N=C1\SCC(=O)N1Cc1ccccc1[N+](=O)[O-] | > 256 µg/mL | 2 µg/mL (≈ 6.53 µM) | > 256 µg/mL | 4 µg/mL (≈ 13.1 µM) | > 256 µg/mL |  | 8 µg/mL (≈ 26.1 µM) | > 256 µg/mL |  | > 256 µg/mL |  |  | > 256 µg/mL | 2 µg/mL (≈ 6.53 µM) |  | > 256 µg/mL |  | > 256 µg/mL | 4 µg/mL (≈ 13.1 µM) | 16 µg/mL (≈ 52.2 µM) | 
6 | Clc1ccccc1C(c1ccccc1)(c1ccccc1)n1ccnc1 [CLOTRIMAZOLE] |  | 2 µg/mL (≈ 5.8 µM) |  | 2 µg/mL (≈ 5.8 µM) |  | 18 µg/mL (≈ 52.2 µM) | 2 µg/mL (≈ 5.8 µM) |  |  |  |  |  |  | 2 µg/mL (≈ 5.8 µM) |  |  | 10.2% |  | 2 µg/mL (≈ 5.8 µM) | 2 µg/mL (≈ 5.8 µM) | 
7 | O=C(O)CN(CCN(CC(=O)O)CC(=O)O)CC(=O)O [EDETIC ACID] |  |  |  |  |  |  |  |  |  |  |  |  |  |  |  |  |  |  |  |  | IC50 [23]: 20 µM
8 | Cc1c(C)c2c(c(C)c1O)CCC(C)(C(=O)O)O2 (stereo not drawn) [TROLOX] |  |  |  |  |  |  |  |  | 240 µM |  | 1130 µM | 400 µM |  |  | 160 µM |  |  |  |  |  | IC50 [24]: 660 µM
